Assay results from ChEMBL document CHEMBL4419164, “Methods and compositions for inhibiting cnksr1” (2018).
Activity calls are given as the source filed them. The calls are words filed in the database; no cut-off is given here.

Experiments:
[1] = biological target: T1, Connector enhancer of kinase suppressor of ras 1 (Homo sapiens) (UniProt Q969H4); experiment: Inhibition of CNKSR1 (unknown origin) assessed as reduction in inhibition of KRas signaling effectors by measuring p-AKT levels at 20 uM by cell based assay
T1 sequence (whole entry): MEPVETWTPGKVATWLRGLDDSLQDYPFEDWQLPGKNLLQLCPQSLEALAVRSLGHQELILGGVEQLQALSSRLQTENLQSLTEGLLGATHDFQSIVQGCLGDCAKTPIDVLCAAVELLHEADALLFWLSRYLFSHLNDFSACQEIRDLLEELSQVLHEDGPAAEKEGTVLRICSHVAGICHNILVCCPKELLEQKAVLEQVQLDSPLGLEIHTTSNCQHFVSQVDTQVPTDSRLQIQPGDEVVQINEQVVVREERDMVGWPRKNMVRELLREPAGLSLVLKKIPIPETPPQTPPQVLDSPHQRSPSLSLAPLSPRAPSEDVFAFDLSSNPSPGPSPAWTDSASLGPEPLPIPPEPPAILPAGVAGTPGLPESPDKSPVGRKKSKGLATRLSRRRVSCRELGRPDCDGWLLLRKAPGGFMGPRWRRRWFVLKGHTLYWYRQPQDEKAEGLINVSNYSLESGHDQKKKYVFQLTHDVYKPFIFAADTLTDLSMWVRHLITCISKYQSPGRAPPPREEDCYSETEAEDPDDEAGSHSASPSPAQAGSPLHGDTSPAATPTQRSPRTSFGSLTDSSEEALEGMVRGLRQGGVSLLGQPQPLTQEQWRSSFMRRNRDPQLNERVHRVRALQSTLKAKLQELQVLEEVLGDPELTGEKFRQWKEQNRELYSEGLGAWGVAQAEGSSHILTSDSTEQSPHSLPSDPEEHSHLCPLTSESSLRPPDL

[2] = Toxicity in SCID mouse xenografted with human NCI-H2122 cells assessed as induction of observable toxic effects at 200 mg/kg/day dosed via gavage daily for 20 days; format: organism-based; settings: in vivo, po, 480 h
[3] = biological target: T1, Connector enhancer of kinase suppressor of ras 1 (Homo sapiens); experiment: Inhibition of GFP-tagged CNKSR1 (unknown origin) expressed in HEK293T cells assessed as blocking of membrane colocalization of CNKSR1 and mutant-KRas at plasma membrane at 50 uM incubated for 4 hrs by confocal imaging assay; format: cell-based
[4] = biological target: T1, Connector enhancer of kinase suppressor of ras 1 (Homo sapiens); experiment: Inhibition of CNKSR1 PH-domain (unknown origin) assessed as reduction in c-RAF Ser338 phosphorylation at 25 to 50 uM by cell based Western blot analysis
[5] = biological target: T2, 3-phosphoinositide-dependent protein kinase 1 (Homo sapiens) (UniProt O15530); experiment: Binding affinity to PDPK1 PH-domain (unknown origin) at 0.01 to 50 uM by SPR spectroscopy
T2 sequence (whole entry): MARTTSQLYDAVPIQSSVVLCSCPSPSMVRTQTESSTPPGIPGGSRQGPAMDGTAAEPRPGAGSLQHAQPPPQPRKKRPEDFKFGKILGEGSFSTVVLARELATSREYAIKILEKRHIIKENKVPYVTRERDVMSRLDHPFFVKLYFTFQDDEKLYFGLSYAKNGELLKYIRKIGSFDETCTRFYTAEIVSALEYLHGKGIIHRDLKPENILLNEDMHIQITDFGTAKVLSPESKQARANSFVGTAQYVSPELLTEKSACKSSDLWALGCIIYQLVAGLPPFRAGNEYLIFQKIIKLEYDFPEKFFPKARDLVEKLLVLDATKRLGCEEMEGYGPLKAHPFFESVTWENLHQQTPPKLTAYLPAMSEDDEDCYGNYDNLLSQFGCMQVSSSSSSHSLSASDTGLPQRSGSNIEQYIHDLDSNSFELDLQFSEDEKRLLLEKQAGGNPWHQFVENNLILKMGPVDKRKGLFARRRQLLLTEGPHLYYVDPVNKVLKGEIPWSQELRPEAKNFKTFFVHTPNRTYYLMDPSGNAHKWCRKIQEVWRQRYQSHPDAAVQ

[6] = Terminal half life in iv dosed mouse; format: ADME, organism-based; settings: in vivo, read-out: beta t1/2
HCC515 [7] = experiment: Growth inhibition of human HCC515 cells relative to control; format: functional, cell-based
[8] = biological target: T3, carboxylesterase 2 (cocaine esterase) (Homo sapiens, UniProt O00748); experiment: Stability assessed as recombinant human carboxyesterase-2 mediated compound hydrolysis by measuring half life at 50 ug/ml at 37 degC at pH 7.4; format: ADME; settings: recombinant human carboxylesterase-2, pH 7.4
T3 sequence (O00748 whole entry): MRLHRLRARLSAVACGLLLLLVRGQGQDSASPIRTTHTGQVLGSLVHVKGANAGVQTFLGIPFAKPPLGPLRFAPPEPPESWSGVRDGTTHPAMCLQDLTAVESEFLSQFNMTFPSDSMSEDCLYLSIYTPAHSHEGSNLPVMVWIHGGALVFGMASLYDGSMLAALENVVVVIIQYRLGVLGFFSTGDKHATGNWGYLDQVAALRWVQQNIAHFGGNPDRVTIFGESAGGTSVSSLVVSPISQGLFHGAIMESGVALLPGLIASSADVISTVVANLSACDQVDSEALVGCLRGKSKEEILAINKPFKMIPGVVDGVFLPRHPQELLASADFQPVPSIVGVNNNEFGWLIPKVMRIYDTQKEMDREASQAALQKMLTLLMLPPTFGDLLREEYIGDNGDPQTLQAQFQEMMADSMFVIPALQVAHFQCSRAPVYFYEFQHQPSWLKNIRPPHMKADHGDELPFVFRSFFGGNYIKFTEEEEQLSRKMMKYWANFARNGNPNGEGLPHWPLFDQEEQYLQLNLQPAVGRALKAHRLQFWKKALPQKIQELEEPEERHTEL

[9] = Half life in C57BL6 mouse at 250 mg/kg, po dosed via gavage as single administration; format: ADME, organism-based; settings: in vivo
HCC515 [10] = experiment: Growth inhibition of human HCC515 cells incubated for 3 days; format: functional, cell-based; settings: HCC515, 72 h
[11] = biological target: T1, Connector enhancer of kinase suppressor of ras 1 (Homo sapiens); experiment: Inhibition of CNKSR1 (unknown origin) assessed as reduction in inhibition of KRas signaling effectors by measuring p-MAPK levels at 20 uM by cell based assay
[12] = biological target: T4, Connector enhancer of kinase suppressor of ras 1 (Homo sapiens, UniProt Q969H4); experiment: Binding affinity to CNKSR1 PH-domain (unknown origin) by SPR spectroscopy; settings: read-out: Kd
T4 sequence (Q969H4 whole entry): T1 sequence (whole entry)

[13] = biological target: T1, Connector enhancer of kinase suppressor of ras 1 (Homo sapiens); experiment: Inhibition of CNKSR1 (unknown origin) assessed as reduction in inhibition of KRas signaling effectors by measuring GTP-RalA levels at 20 uM by cell based assay
[14] = biological target: Rho guanine nucleotide exchange factor TIAM1 (Homo sapiens) (UniProt Q13009); experiment: Binding affinity to TIAM1 PH-domain (unknown origin) at 0.01 to 50 uM by SPR spectroscopy
[15] = biological target: T1, Connector enhancer of kinase suppressor of ras 1 (Homo sapiens); experiment: Inhibition of GFP-tagged CNKSR1 (unknown origin) expressed in HEK293T cells assessed as inhibition of direct binding of CNKSR1 to mut-KRAS at 50 uM incubated for 4 hrs by fluorescence lifetime imaging microscopy; format: cell-based
NCI-H1373 = experiment: Growth inhibition of human NCI-H1373 cells relative to control; format: functional, cell-based

Rho guanine nucleotide exchange factor TIAM1 (Homo sapiens), sequence (Q13009 whole entry): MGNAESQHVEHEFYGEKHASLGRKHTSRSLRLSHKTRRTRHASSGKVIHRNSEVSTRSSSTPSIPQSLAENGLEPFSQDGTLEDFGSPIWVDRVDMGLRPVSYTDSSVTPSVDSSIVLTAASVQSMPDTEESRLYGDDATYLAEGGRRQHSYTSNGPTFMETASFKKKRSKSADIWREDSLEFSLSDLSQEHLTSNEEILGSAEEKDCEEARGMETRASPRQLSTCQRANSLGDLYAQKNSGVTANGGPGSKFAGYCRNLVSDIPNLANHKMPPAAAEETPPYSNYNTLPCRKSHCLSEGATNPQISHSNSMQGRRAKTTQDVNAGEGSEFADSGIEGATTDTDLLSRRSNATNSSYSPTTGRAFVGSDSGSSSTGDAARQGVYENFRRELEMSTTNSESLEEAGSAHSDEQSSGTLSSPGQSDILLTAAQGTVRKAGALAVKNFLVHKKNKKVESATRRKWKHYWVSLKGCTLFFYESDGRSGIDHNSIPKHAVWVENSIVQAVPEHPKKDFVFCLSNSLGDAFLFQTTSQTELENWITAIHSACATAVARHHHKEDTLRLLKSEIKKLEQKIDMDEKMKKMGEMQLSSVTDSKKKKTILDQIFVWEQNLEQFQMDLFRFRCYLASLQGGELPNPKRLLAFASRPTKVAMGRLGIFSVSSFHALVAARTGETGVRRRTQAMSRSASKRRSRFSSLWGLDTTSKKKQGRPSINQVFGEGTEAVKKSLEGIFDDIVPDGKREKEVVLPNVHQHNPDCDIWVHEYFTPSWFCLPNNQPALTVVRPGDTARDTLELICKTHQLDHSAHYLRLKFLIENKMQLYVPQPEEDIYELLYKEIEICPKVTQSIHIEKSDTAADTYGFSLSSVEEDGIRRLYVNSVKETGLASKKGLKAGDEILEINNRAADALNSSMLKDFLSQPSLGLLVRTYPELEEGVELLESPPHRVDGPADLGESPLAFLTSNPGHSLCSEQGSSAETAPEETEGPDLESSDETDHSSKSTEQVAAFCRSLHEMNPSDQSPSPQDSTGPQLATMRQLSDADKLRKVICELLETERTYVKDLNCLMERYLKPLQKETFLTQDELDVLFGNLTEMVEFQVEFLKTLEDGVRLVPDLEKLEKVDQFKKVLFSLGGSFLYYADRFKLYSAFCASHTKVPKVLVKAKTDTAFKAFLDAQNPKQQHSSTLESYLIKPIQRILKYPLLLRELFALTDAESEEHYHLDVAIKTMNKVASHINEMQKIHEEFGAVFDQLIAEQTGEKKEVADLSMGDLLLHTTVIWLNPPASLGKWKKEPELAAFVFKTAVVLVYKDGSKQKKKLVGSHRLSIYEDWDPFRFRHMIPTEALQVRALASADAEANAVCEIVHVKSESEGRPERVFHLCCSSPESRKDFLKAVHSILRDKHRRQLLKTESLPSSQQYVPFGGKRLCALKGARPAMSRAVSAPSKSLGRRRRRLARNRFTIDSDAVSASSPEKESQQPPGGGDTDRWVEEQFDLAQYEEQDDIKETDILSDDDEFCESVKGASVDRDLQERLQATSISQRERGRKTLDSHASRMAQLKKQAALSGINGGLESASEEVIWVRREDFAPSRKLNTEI

In the case of CCOC(=O)Cc1nn(Cc2nc(-c3ccc(C)cc3)cs2)c(=O)c2ccccc12, the inhibition [1] is reported as “Active”, the Activity [2] is reported as “Non-Toxic” and the inhibition [3] is reported as “Active”. For the same compound, the inhibition [4] was “Active”, the Activity [5] was “inactive” and the half-life [6] was 3 min. The “growth inhibition (GI)” value (HCC515 [7]) was “Active”, the half-life at 50 ug/ml [8] was 1.65 h and the half-life [9] was 6 h. For the same compound, the IC50 (HCC515 [10]) was 70 µM, the inhibition [11] was “Active” and the Kd [12] was 1.8 to 3.2 µM. The inhibition [13] was “Active”, the Activity [14] was “inactive” and the inhibition [15] was “Active”. The “growth inhibition (GI)” value (NCI-H1373) was “Active”.
